In patent publication US20120172392A1, “AMINE-BASED AND AMIDE-BASED INHIBITORS OF SEMICARBAZIDE-SENSITIVE AMINE OXIDASE (SSAO) ENZYME ACTIVITY AND VAP-1 MEDIATED ADHESION USEFUL FOR TREATMENT OF DISEASES” (priority 2004, published 2012):
pIC50: −log10 of the molar value. Counter-ions that a name gives are not always drawn.

Assays:
[1] = target: T1, SSAO (Rattus norvegicus, UniProt O08590); assay: In vitro inhibition of SSAO activity, radiolabeled benzylamine procedure (rat lung homogenate); assay type: biochemical
T1 construct: SSAO activity in 100 ul of lung homogenate was determined radiochemically; from tissue; host or cells: rat lung homogenate (1000 g supernatant)
T1 sequence (O08590 1-763): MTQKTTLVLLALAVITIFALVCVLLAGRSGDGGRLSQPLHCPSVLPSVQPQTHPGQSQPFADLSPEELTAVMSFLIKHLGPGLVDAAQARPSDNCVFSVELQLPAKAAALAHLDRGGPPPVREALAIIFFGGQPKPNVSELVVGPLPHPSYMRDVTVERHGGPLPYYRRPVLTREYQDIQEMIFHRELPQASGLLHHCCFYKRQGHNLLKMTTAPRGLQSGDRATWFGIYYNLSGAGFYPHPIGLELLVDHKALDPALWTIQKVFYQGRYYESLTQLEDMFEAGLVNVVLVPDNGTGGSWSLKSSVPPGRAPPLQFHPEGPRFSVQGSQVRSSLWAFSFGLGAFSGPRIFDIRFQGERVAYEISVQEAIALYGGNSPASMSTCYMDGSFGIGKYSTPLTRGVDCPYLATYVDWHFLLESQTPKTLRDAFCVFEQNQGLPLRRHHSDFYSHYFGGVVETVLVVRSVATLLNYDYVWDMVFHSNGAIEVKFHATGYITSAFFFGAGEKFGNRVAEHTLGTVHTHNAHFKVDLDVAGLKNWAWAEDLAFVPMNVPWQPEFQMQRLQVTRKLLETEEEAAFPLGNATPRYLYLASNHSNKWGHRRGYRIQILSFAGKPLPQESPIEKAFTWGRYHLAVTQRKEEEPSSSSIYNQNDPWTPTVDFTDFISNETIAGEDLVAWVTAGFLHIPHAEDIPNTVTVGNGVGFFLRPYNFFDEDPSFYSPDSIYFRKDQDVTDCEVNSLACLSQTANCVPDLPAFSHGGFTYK

[2] = test system: C57BL/6 mice; assay: Experimental autoimmune encephalomyelitis (EAE) in mice; assay type: in vivo; settings: for EAE development after stopping treatment: after last treatment (d19-25)
Description: Thirty female C57BL/6 mice were immunized subcutaneously (s,c) with myelin oligodendrocyte glycoprotein 35-55 (MOG peptide 35-55) in Complete Freund Adjuvant (CFA) on day 0, followed by i.p. injections of pertussis toxin (one pertussis toxin injection on day 0, a second pertussis toxin injection on day 2). Groups of 10 mice received either the allylamine Compound mofegiline (M1, 10 mg/kg/dose, twice daily for 18 consecutive days), methotrexate (MTX, 2.5 mg/kg/day, every other day (Mon., Weds., Fri.) till day 18) or vehicle control (twice/day for 18 consecutive days) all starting from one day after the immunization and all administered i.p. Then animals were monitored for body weight, signs of paralysis and death according to a 0-5 scale of scoring system as follows; 1=limp tail or waddling gait with tail tonicity; 2=waddling gait with limp tail (ataxia); 2.5=ataxia with partial limb paralysis; 3=full paralysis of one limb; 3.5=full paralysis of one limb with partial paralysis of second limb; 4=full paralysis of two limbs; 4.5=moribund; 5=death. Results are shown in FIG. 1A, FIG. 1B, and FIG. 1C. […] (p=0.04 by repeated measure analysis to assess the treatment effect. Proper polynomial transformation, with the spacing corresponding to the collection days, was applied to test the time effect). Statistically significant differences in diseases severity between the M1 and vehicle-treated groups, continued even after stopping compound administration and were observed until the end of the study (d25).

[3] = target: T1, SSAO; assay: In vitro inhibition of SSAO activity, radiolabeled benzylamine procedure (rat lung homogenate); assay type: biochemical
Description: SSAO activity was also measured as described (Lizcano J M. Et al. (1998) Biochem J. 331:69). Briefly, rat lung homogenates were prepared by chopping the freshly removed tissue into small pieces and washing them thoroughly in PBS. The tissue was then homogenized 1:10 (w/v) in 10 mM potassium phosphate buffer (pH 7.8) and centrifuged at 1000 g at 4° C. for 10 minutes; the supernatant was kept frozen until ready to use. SSAO activity in 100 ul of lung homogenate was determined radiochemically using 20 uM ^14C-benzylamine as substrate. The reaction was carried out at 37° C. in a final volume of 300 ul of 50 mM potassium phosphate buffer (pH 7.2) and stopped with 100 ul of 2 M citric acid. Radioactively labeled products were extracted into; toluene/ethyl acetate (1:1, v/v) containing 0.6% (w/v) 2,5-diphenyloxdazole (PPO) before liquid scintillation counting.

[4] = target: T2, human MAO-A (Homo sapiens, UniProt P21397); assay: Inhibition of MAO-A activity, coupled colorimetric assay; assay type: biochemical; settings: recombinant human MAO-A, tyramine substrate
T2 construct: purchased BD Biosciences (MA, USA)
T2 sequence (P21397 1-527): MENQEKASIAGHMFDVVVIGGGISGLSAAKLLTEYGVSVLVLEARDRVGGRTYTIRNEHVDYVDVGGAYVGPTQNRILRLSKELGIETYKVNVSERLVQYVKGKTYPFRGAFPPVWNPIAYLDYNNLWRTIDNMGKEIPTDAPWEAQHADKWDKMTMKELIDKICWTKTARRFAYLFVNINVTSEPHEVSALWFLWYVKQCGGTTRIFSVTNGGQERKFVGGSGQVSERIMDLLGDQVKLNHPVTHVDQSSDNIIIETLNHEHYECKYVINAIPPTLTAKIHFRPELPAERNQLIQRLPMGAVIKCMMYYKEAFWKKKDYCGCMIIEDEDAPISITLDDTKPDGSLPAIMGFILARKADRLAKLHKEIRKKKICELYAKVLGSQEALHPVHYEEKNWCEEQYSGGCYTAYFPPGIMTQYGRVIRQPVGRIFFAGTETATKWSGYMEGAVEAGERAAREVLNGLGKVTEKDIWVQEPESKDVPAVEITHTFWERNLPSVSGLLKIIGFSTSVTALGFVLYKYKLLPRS
Description: (§1) The specificity of the different SSAO inhibitors was tested by determining their ability to inhibit MAO-A and MAO-B activities in vitro. Recombinant human MAO-A and human MAO-B enzymes were obtained from BD Biosciences (MA, USA). MAO activities were measured in a similar way as for SSAO except that no pre-incubation with inhibitor or substrate was performed. A pre-determined amount of inhibitor diluted in 0.2 M potassium phosphate buffer, pH 7.6, was added to each well, if required. The amount of inhibitor varied in each assay but was generally at a final concentration of between 50 nM and 1 mM. Controls lacked inhibitor. The following agents were then added to a final reaction volume of 200 μl in 0.2 M potassium phosphate buffer, pH 7.6: 0.04 mg/ml of MAO-A or 0.07 mg/ml MAO-B enzyme, 15 μl of 10 mM tyramine substrate (for MAO-A), or 15 μl 100 mM benzylamine substrate (for MAO-B), and 50 μl of freshly made chromogenic solution (as above). The plates were incubated for 60 min at 37° C. The increase in absorbance, reflecting MAO activity, was measured at 490 nm using microplate spectrophotometer (Power Wave 40, Bio-Tek Inst.). Inhibition was determined as percent inhibition compared to control after correcting for background absorbance and IC50 values, and was calculated using. GraphPad Prism software. […]

[5] = target: T3, human MAO-B (Homo sapiens, UniProt P27338); assay: Inhibition of MAO-B activity, coupled colorimetric assay; assay type: biochemical; settings: recombinant human MAO-B, benzylamine substrate
T3 construct: purchased BD Biosciences (MA, USA)
T3 sequence (P27338 1-520): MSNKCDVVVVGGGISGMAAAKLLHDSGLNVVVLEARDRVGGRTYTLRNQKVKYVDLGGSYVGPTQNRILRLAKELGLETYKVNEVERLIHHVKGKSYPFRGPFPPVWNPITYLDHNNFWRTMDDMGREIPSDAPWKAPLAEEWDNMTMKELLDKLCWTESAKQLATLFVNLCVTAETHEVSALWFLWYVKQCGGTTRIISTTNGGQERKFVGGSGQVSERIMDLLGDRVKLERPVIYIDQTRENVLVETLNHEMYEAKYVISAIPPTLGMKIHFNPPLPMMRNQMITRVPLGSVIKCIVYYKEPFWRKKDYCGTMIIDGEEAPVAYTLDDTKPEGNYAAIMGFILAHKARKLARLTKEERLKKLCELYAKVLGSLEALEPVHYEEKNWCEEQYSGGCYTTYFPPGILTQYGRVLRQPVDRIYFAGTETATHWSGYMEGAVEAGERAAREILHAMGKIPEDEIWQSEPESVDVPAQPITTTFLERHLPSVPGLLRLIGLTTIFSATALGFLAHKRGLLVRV
Description: as §1

[6] = Table I, compounds of formula X
[7] = Table II, compounds of formula III

SMILES: C#CC(N)CCCc1ccc(OC)cc1 (stereo not shown) (as salt: hydrochloride)
- melting point: 175 °C (dec.)

SMILES: NCC(=O)NCc1ccc(F)cc1 (as salt: hydrochloride) [LJP 1334, 2-amino-N-(4-fluorobenzyl)acetamide]
- melting point: 114 to 115 °C

SMILES: NCC(=O)NCc1cc(F)cc(C(F)(F)F)c1 (as salt: trifluoroacetate) [LJP 1383, 2-amino-N-(3-fluoro-5-trifluoromethylbenzyl)acetamide trifluoroacetate]
- melting point: 189.5 to 190.5 °C

SMILES: NC/C=C(/Cc1ccccc1)C(F)(F)F [Example 3, 3-benzyl-4,4,4-trifluoro-but-2-enylamine]
- melting point: 170 °C (dec.)

SMILES: COc1ccc(CCCC(N)c2ccc(F)c(F)c2)cc1 (stereo not shown) [Example 3D, 1-(3,4-difluorophenyl)-4-(4-methoxyphenyl)-butylamine]
- melting point: 200 °C (dec.)

SMILES: C=CC(N)CCCc1ccccc1 (stereo not shown) [Example 3E, 1-(3-phenyl-propyl)-allylamine]
- melting point: 143 to 144 °C

SMILES: NCC(=O)NCc1cccnc1 [LJP 1356, 2-amino-N-pyridin-3-ylmethylacetamide]
- melting point: 87 to 88 °C

SMILES: COc1cccc(CCC2=CCNC2)c1.Cl [LJP 1368, 3-[2-(3-methoxyphenyl)ethyl]-3-pyrroline hydrochloride]
- reversibility of inhibition of SSAO enzyme activity [1]: irreversible

SMILES: CN(Cc1cnc2nc(N)nc(N)c2n1)c1ccc(C(=O)N[C@@H](CCC(=O)O)C(=O)O)cc1 [MTX, methotrexate]
- EAE development after stopping treatment [2]: a rise in disease incidence and severity was observed right after stopping the MTX treatment

SMILES: NCC(=O)NCc1ccc(F)cc1 [compound 1334]
- pIC50 [3, 6]: 5.62

SMILES: NCC(=O)NCc1cccnc1 [compound 1356]
- pIC50 [3, 6]: 6.15

SMILES: Fc1cccc(CCC2=CCNC2)c1 [compound 1367]
- pIC50 [3, 7]: 5.62

SMILES: COc1cccc(CCC2=CCNC2)c1 [compound 1368]
- pIC50 [3, 7]: 6.30
- pIC50 [4]: < 3.00
- pIC50 [5]: < 3.00

SMILES: NCC(=O)NCc1cc(F)cc(C(F)(F)F)c1 [compound 1383]
- pIC50 [3, 6]: 7.48
- pIC50 [4]: < 2.89
- pIC50 [5]: < 2.89
- melting point: 189.5 to 190 °C

SMILES: Fc1ccc(OCC2=CCCNC2)cc1 [compound 1395]
- inhibition at 10 µM ([3]; Table II): 56%

SMILES: COc1ccc(CCC2=CCNC2)cc1 [compound 1396]
- pIC50 [3, 7]: 5.68

SMILES: COc1ccc(OCC2=CCCNC2)cc1OC [compound 1397]
- inhibition at 9 µM ([3]; Table II): 54%

SMILES: Fc1cccc(OCC2=CCCNC2)c1 [compound 1398]
- inhibition at 10 µM ([3]; Table II): 61%

SMILES: COc1cccc(OCC2=CCCNC2)c1 [compound 1401]
- inhibition at 10 µM ([3]; Table II): 74%

SMILES: Fc1ccc(CCC2=CCNC2)cc1 [compound 1402]
- pIC50 [3, 7]: 5.74

SMILES: COc1ccc(OCC2=CCCNC2)cc1 [compound 1404]
- inhibition at 10 µM ([3]; Table II): 63%

SMILES: COc1ccc(CCC2=CCNC2)cc1OC [compound 1427]
- inhibition at 9 µM ([3]; Table II): 50%

SMILES: NC/C(=C/F)CCc1ccc(F)cc1 [mofegiline]
- EAE development after stopping treatment [2]: continuously observed for at least one more week after the last treatment
- disease (clinical) severity, EAE development ([2]; dosing period d0-18, i.p., mofegiline 10 mg/kg/dose twice daily, MTX 2.5 mg/kg/day every other day): statistically significant reduction of disease seventy
- disease incidence (mice affected) ([2]; dosing period up to day 18, 10 mg/kg/dose i.p. twice daily): 50%
- body weight ([2]; dosing period, 10 mg/kg/dose i.p. twice daily): prevented body weight loss
